The results in this text go back to patent US20220380314A1, “SUBSTITUTED, SATURATED AND UNSATURATED N-HETEROCYCLIC CARBOXAMIDES AND RELATED COMPOUNDS FOR THEIR USE IN THE TREATMENT OF MEDICAL DISORDERS” (Bial - R&D Investments, S.A., priority 2019, published 2022).

A value given as a limit tells only on which side of the number the result lay.

For this experiment, the target named is T1, acid ceramidase (hACR) (Homo sapiens, UniProt Q13510).
T1 construct: expressed in transfected cells; cell lysate used
T1 sequence (Q13510 143-395 limits assumed): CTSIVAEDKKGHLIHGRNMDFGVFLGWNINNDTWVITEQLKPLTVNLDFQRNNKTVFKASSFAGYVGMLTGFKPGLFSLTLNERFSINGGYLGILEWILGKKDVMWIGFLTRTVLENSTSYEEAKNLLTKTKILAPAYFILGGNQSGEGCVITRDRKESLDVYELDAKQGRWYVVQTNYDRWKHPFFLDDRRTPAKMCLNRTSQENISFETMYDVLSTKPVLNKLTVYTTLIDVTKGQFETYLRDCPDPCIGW
T1 sequence (Q13510 22-142 limits assumed): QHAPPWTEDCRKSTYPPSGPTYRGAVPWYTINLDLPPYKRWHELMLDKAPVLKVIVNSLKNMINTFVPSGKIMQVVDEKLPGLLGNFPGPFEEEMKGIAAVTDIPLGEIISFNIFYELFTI
As to the kind of experiment: Acid ceramidase inhibition, biochemical fluorescent assay with cell lysates overexpressing acid ceramidase, substrate Rbm14-12. Conditions: cell lysates overexpressing acid ceramidase; 1 hr preincubation at RT; pH 4.5; substrate Rbm14-12 6.3 μM; read-out: hACR IC50. As to the method: The ability of exemplary compounds to inhibit acid ceramidase was measured.
Cell lysates overexpressing acid ceramidase were used as the enzyme source for compound potency determination in a biochemical fluorescent assay. Briefly, compounds were preincubated with 10 µg protein of cell lysates in a dose-response manner for 1 hr at RT in the assay buffer containing 25 mM NaAC and 100 mM NaCl, pH 4.5. The reaction was initiated by the addition of substrate Rbm14-12 at a final concentration of 6.3 μM. The reaction was run at RT for 1 hr before it was stopped by the addition of the stopping buffer containing 20% methanol (v/v), 1 mg/ml NaIO4, 0.1 M glycine, pH 10.6. The samples were incubated with the stopping buffer at RT for 1 hr to allow the fluorescent product to be formed. Finally the plate was read with SpectraMax i3 plate reader (Molecular Devices) at ex360 nm and em446 nm. Data were collected and used to determine the IC50 values of compounds by curve fitting to the four-parameter inhibition equation.
The symbol “A” indicates inhibition of less than 0.2 μM; the symbol “B” indicates inhibition in the range of 0.2 μM up to 1 μM; and the symbol “C” indicates inhibition of greater than 1 μM.
For `CC(C)[C@@H]1CN(C2CC2)CCN1C(=O)NCCCCc1ccccc1` [Example 116, (2R)-4-Cyclopropyl-2-isopropyl-N-(4-phenylbutyl)piperazine-1-carboxamide], the IC50 was in the range of 200 to 1000 nM. For `CC(C)[C@H]1CN(C2CC2)CCN1C(=O)NCCCCc1ccccc1` [Example 117, (2S)-4-Cyclopropyl-2-isopropyl-N-(4-phenylbutyl)piperazine-1-carboxamide], the IC50 was more than 1000 nM. For the compound `CCCCCNC(=O)N1CCN(C2CC2)C[C@@H]1C(C)C` [Example 118, (2S)-4-Cyclopropyl-2-isopropyl-N-pentylpiperazine-1-carboxamide], the IC50 is more than 1000 nM. Under `CC1CN(C(=O)NCCCCc2ccccc2)C(C)(C)CC1=O` (stereo not shown) [Example 119, 2,2,5-Trimethyl-4-oxo-N-(4-phenylbutyl)piperidine-1-carboxamide] stands more than 1000 nM; under `CC1(C)CN(C(=O)NCCCCc2ccccc2)C(C)(C)CC1=O` [Example 120, 2,2,5,5-Tetramethyl-4-oxo-N-(4-phenylbutyl)piperidine-1-carboxamide], more than 1000 nM; under `CC1(C)CC(=O)C(Cc2ccccc2)CN1C(=O)NCCCCc1ccccc1` (stereo not shown) [Example 121, 5-Benzyl-2,2-dimethyl-4-oxo-N-(4-phenylbutyl)piperidine-1-carboxamide], less than 200 nM. For `CC1(C)CC(=O)/C(=C/c2ccccc2)CN1C(=O)NCCCCc1ccccc1` [Example 122, (5E)-5-Benzylidene-2,2-dimethyl-4-oxo-N-(4-phenylbutyl)piperidine-1-carboxamide], the IC50 is less than 200 nM. As for `CC1(C)CC(=O)C(c2ccccc2)CN1C(=O)NCCCCc1ccccc1` (stereo not shown) [Example 123, 2,2-Dimethyl-4-oxo5-phenyl-N-(4-phenylbutyl)piperidine-1-carboxamide], the 50% inhibitory concentration (IC50) is more than 1000 nM. For `CCCCCNC(=O)N1CC(C)C(N2CCCCC2)CC1(C)C` (stereo not shown) [Example 124, 2,2,5-Trimethyl-N-pentyl-4-(1-piperidyl)piperidine-1-carboxamide], the IC50 was less than 200 nM. The value for `CC1(C)CC(N2CCCCC2)C(Cc2ccccc2)CN1C(=O)NCCCCc1ccccc1` (stereo not shown) [Example 125, 5-Benzyl-2,2-dimethyl-N-(4-phenylbutyl)-4-(1-piperidyl)piperidine-1-carboxamide] was less than 200 nM; that for `CC1(C)CC(N2CCCCC2)C(Cc2ccccc2)CN1C(=O)NCCc1ccccc1` (stereo not shown) [Example 126, 5-Benzyl-2,2-dimethyl-N-(2-phenylethyl)-4-(1-piperidyl)piperidine-1-carboxamide] was less than 200 nM. Under `CCCCCNC(=O)N1CC(Cc2ccccc2)C(N2CCCCC2)CC1(C)C` (stereo not shown) [Example 127, 5-Benzyl-2,2-dimethyl-N-pentyl-4-(1-piperidyl)piperidine-1-carboxamide] stands less than 200 nM; under `CC1(C)CC(N2CCCCC2)/C(=C/c2ccccc2)CN1C(=O)NCCCCc1ccccc1` (stereo not shown) [Example 128, (5E)-5-Benzylidene-2,2-dimethyl-N-(4-phenylbutyl)-4-(1-piperidyl)piperidine-1-carboxamide], less than 200 nM; under `CC1(C)CC(N2CCCCC2)/C(=C/c2ccccc2)CN1C(=O)NCCc1ccccc1` (stereo not shown) [Example 129, (5E)-5-Benzylidene-2,2-dimethyl-N-(2-phenylethyl)-4-(1-piperidyl)piperidine-1-carboxamide], 200 to 1000 nM. As for `CCCCCNC(=O)N1C/C(=C\c2ccccc2)C(N2CCCCC2)CC1(C)C` (stereo not shown) [Example 130, (5E)-5-Benzylidene-2,2-dimethyl-N-pentyl-4-(1-piperidyl)piperidine-1-carboxamide], the concentration for half-maximal inhibition (IC50) is less than 200 nM. Consider `CCCCCNC(=O)N1CC(c2ccccc2)C(N2CCCCC2)CC1(C)C` (stereo not shown) [Example 131, 2,2-Dimethyl-N-pentyl-5-phenyl-4-(1-piperidyl)piperidine-1-carboxamide], for which the IC50 was less than 200 nM. Take `CC1(C)COCC(c2ccccc2)N1C(=O)NCCCCc1ccccc1` (stereo not shown) [Example 133, 3,3-Dimethyl-5-phenyl-N-(4-phenylbutyl)morpholine-4-carboxamide]: the IC50 is less than 200 nM.

For the compound `CCCCCCCNC(=O)N1C(c2ccccc2)COCC1(C)C` (stereo not shown) [Example 134, N-Heptyl-3,3-dimethyl-5-phenylmorpholine-4-carboxamide], the IC50 was less than 200 nM. `CC1(C)COCC(c2ccccc2)N1C(=O)NC1CCCCC1` (stereo not shown) [Example 135, N-Cyclohexyl-3,3-dimethyl-5-phenylmorpholine-4-carboxamide]: the IC50 lay in the range of 200 to 1000 nM. Regarding `CC1(C)COCC(c2ccc(F)cc2)N1C(=O)NCCCCc1ccccc1` (stereo not shown) [Example 136, 5-(4-Fluorophenyl)-3,3-dimethyl-N-(4-phenylbutyl)morpholine-4-carboxamide], the IC50 was less than 200 nM. On to `CC(C)CNC(=O)N1C(c2ccc(F)cc2)COCC1(C)C` (stereo not shown) [Example 140, 5-(4-Fluorophenyl)-N-isobutyl-3,3-dimethylmorpholine-4-carboxamide], for which the IC50 was less than 200 nM. For `CCCCCNC(=O)N1[C@@H](C)COC[C@H]1c1ccc(F)cc1` [Example 141, (3R,5S)-3-(4-Fluorophenyl)-5-methyl-N-pentylmorpholine-4-carboxamide], the IC50 was in the range of 200 to 1000 nM. Take `CCCCCNC(=O)N1[C@H](C)COC[C@@H]1c1ccc(F)cc1` [Example 142, (3S,5R)-3-(4-Fluorophenyl)-5-methyl-N-pentylmorpholine-4-carboxamide]: the IC50 lay within 200 to 1000 nM. As for `COc1ccc(C2COCC(C)(C)N2C(=O)NCC(C)C)cc1` (stereo not shown) [Example 143, N-iso-Butyl-5-(4-methoxyphenyl)-3,3-dimethylmorpholine-4-carboxamide], the concentration for half-maximal inhibition (IC50) was less than 200 nM. Regarding `COc1ccc(C2COCC(C)(C)N2C(=O)NCCC2CC2)cc1` (stereo not shown) [Example 146, N-(2-Cyclopropylethyl)-5-(4-methoxyphenyl)-3,3-dimethylmorpholine-4-carboxamide], the IC50 is less than 200 nM. As for `COc1ccc(C2COCC(C)(C)N2C(=O)NCCC(C)C)cc1` (stereo not shown) [Example 147, N-iso-Pentyl-5-(4-methoxyphenyl)-3,3-dimethylmorpholine-4-carboxamide], the IC50 is less than 200 nM. Consider `COc1ccc(C2COCC(C)(C)N2C(=O)NCCc2ccc(F)cc2)cc1` (stereo not shown) [Example 148, N-[2-(4-Fluorophenyl)ethyl]-5-(4-methoxyphenyl)-3,3-dimethylmorpholine-4-carboxamide], for which the IC50 was less than 200 nM. Take `COc1ccc(C2COCC(C)(C)N2C(=O)NCCCCC2CC2)cc1` (stereo not shown) [Example 149, N-(4-Cyclopropylbutyl)-5-(4-methoxyphenyl)-3,3-dimethylmorpholine-4-carboxamide]: the IC50 is less than 200 nM. Under `COc1ccc(C2COCC(C)(C)N2C(=O)NCC2CCCCC2)cc1` (stereo not shown) [Example 150, N-(Cyclohexylmethyl)-5-(4-methoxyphenyl)-3,3-dimethylmorpholine-4-carboxamide] stands less than 200 nM; under `COc1ccc(C2COCC(C)(C)N2C(=O)NCc2ccc(F)cc2)cc1` (stereo not shown) [Example 151, N-[(4-Fluorophenyl)methyl]-5-(4-methoxyphenyl)-3,3-dimethylmorpholine-4-carboxamide], less than 200 nM. Consider `COc1ccc(C2COCC(C)(C)N2C(=O)NCC(F)(F)F)cc1` (stereo not shown) [Example 152, 5-(4-Methoxyphenyl)-3,3-dimethyl-N-(2,2,2-trifluoroethyl)morpholine-4-carboxamide], for which the IC50 is more than 1000 nM. Take `CCCCCNC(=O)N1C(c2ccccc2C)COCC1(C)C` (stereo not shown) [Example 158, 3,3-Dimethyl-5-(o-tolyl)-N-pentylmorpholine-4-carboxamide]: the IC50 was less than 200 nM. As for `CCCCCNC(=O)N1C(c2ccc(OC)nc2)COCC1(C)C` (stereo not shown) [Example 159, 5-(6-Methoxy-3-pyridyl)-3,3-dimethyl-N-pentylmorpholine-4-carboxamide], the IC50 was less than 200 nM.

Turning to `CCCCCNC(=O)N1C(c2ccc(OC)cc2F)COCC1(C)C` (stereo not shown) [Example 160, 5-(2-Fluoro-4-methoxyphenyl)-3,3-dimethyl-N-pentylmorpholine-4-carboxamide], the IC50 was less than 200 nM.

In the case of `CCCCCNC(=O)N1C(c2ccc(OC)c(F)c2)COCC1(C)C` (stereo not shown) [Example 161, 5-(3-Fluoro-4-methoxyphenyl)-3,3-dimethyl-N-pentylmorpholine-4-carboxamide], the half-maximal inhibitory concentration (IC50) was less than 200 nM. Take `CCCCCNC(=O)N1C(c2ccc(F)c(F)c2)COCC1(C)C` (stereo not shown) [Example 162, 5-(3,4-Difluorophenyl)-3,3-dimethyl-N-pentylmorpholine-4-carboxamide]: the IC50 was less than 200 nM. Take `CCCCCNC(=O)N1C(c2ccc(F)c(OC)c2)COCC1(C)C` (stereo not shown) [Example 163, 5-(4-Fluoro-3-methoxyphenyl)-3,3-dimethyl-N-pentylmorpholine-4-carboxamide]: the concentration for half-maximal inhibition (IC50) was less than 200 nM.

What is called IC50 is the concentration that inhibits the measured activity by half.
